# Data as given in patent US10479795B2 (Incyte Corporation, priority 2016, dated 2019).
# Where a name gives a salt, the structure may show the parent alone. Read-outs that look alike come from different tables or passages of the source.
# Experiments:
# [1] = system: Phosphorylated Ribosomal Protein S6 (RPS6); experiment: THP-1 RPS6 ELISA Assay; format: cell-based, Human; details: THP-1 cells, read-out: PI3Kγ_THP1_RPS6_ELISA IC50
# In short: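 Serum-starved THP-1 cells were preincubated with a concentration range of compound for 2 h at 37 °C, then stimulated with 10 nM MCP-1 for 15 min. Phospho-RPS6 in lysates was quantified by ELISA at 450 nm. IC50 came from percent inhibition versus log inhibitor concentration.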
# [2] = molecular target: PI3Kγ (p110γ) Recombinant Human Protein (Homo sapiens (Human), UniProt P48736); experiment: PI3K-γ Scintillation Proximity Assay; format: biochemical; details: read-out: PI3Kγ IC50
# In short: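 Recombinant human p110γ assayed at room temperature in 20 mM MOPS pH 6.7, 10 mM MgCl2, 5 mM DTT, 0.03% CHAPS, 2% DMSO, with 20 μM PIP2 and 2 μM ATP plus [γ-33P]ATP. Product captured on WGA SPA beads overnight and counted; IC50 fitted from % of solvent-control activity versus log inhibitor concentration.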
# [3] = molecular target: PI3Kδ (p110δ/p85α) Recombinant Human Protein (Homo sapiens (Human), UniProt O00329); experiment: PI3Kδ Scintillation Proximity Assay; format: biochemical
# In short: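 Recombinant human p110δ/p85α (3.4 nM) with 20 μM PIP2 and 2 μM ATP plus [γ-33P]ATP, in 20 mM MOPS pH 6.7, 10 mM MgCl2, 5 mM DTT, 0.03% CHAPS, 2% DMSO; 120 min at room temperature. Product captured on WGA SPA beads, scintillation counted; IC50 from percent-of-control curves.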
# Sequence of PI3Kγ (p110γ) Recombinant Human Protein (P48736 whole entry): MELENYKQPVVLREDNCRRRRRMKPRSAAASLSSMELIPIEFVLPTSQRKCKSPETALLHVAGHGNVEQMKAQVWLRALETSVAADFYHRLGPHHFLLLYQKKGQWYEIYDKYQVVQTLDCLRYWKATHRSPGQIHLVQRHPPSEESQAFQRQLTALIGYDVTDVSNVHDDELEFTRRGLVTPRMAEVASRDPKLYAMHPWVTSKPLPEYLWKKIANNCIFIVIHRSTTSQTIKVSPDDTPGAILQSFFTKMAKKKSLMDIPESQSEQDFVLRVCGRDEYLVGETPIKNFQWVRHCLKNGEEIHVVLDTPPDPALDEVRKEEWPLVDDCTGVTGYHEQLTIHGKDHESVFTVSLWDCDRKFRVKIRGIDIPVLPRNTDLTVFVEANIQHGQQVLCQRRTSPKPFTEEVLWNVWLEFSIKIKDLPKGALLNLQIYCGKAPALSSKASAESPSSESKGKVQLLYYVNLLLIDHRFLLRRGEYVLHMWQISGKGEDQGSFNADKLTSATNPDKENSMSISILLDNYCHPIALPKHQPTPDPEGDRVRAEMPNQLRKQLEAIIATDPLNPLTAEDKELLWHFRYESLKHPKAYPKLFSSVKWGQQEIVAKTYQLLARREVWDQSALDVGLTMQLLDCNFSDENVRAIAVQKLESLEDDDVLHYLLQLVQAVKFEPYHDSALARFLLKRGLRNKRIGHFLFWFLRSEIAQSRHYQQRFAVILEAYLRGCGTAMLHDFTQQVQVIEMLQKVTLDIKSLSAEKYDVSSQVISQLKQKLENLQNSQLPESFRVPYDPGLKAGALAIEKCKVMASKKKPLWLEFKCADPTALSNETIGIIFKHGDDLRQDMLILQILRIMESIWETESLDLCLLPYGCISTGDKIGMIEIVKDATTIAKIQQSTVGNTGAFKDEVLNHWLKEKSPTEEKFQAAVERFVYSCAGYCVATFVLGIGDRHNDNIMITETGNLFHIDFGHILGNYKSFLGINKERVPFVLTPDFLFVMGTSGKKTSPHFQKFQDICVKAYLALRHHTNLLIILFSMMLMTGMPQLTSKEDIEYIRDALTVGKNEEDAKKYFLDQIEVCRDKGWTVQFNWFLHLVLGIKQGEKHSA
# Sequence of PI3Kδ (p110δ/p85α) Recombinant Human Protein (O00329 whole entry): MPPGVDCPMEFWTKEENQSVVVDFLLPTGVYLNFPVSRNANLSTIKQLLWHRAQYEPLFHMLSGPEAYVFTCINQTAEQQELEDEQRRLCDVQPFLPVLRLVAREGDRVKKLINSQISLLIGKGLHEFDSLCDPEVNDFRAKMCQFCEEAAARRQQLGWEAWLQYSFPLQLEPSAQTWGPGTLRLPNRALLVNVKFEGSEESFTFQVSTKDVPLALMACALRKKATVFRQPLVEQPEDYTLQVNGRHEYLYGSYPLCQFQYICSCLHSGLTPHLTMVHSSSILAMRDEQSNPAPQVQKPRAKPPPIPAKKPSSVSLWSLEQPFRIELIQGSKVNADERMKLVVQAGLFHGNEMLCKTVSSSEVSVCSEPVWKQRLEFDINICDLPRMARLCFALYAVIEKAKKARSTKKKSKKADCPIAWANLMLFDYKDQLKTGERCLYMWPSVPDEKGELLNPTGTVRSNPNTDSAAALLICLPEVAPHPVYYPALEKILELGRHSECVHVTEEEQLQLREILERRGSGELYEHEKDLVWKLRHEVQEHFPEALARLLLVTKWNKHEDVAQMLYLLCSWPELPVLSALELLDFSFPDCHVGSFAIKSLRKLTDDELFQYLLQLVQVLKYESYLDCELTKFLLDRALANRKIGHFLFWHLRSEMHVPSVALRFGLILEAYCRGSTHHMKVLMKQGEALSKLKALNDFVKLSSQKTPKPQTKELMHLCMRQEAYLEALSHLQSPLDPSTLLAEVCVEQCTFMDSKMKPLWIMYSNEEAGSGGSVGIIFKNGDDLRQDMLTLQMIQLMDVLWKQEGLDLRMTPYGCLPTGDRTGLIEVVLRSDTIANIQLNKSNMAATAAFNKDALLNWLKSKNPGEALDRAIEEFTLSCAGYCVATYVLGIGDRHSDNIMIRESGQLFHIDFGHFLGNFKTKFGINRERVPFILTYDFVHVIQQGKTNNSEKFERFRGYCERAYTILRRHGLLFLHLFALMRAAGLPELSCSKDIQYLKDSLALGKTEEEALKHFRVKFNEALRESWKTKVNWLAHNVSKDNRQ
# Sequence of PI3Kδ (p110δ/p85α) Recombinant Human Protein (P27986 whole entry partner): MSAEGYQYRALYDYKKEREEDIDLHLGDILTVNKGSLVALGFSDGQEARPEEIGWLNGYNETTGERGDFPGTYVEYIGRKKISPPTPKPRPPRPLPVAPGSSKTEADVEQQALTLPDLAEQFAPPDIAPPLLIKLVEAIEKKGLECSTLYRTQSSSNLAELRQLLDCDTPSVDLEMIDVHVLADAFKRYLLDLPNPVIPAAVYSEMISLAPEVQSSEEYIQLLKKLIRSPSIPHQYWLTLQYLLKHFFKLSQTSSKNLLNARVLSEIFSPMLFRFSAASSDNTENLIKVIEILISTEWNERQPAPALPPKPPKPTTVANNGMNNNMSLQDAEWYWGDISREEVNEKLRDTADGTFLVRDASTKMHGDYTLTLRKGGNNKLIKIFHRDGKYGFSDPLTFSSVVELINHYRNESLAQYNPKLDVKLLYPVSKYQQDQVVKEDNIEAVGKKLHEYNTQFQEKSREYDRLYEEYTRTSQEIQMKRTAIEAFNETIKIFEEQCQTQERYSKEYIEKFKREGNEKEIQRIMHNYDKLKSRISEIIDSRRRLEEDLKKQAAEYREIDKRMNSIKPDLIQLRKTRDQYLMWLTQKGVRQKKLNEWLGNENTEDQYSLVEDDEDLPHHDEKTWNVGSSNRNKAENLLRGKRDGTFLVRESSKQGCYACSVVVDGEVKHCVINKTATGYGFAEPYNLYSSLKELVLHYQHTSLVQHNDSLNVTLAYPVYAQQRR
IC50 [1] [nM],IC50 [2] [nM],IC50 [3] [nM],IC50 ([1]; Homo sapiens) [nM],Structure (SMILES)
< 100,< 100,100 to 500,,"Cc1c(F)cc(S(=O)(=O)NC23CCC(C#N)(C2)C3)cc1-c1cnc2c(N)nc(C(F)(F)F)nn12 [Example 416, 3-(4-Amino-2-(trifluoromethyl)imidazo[1,2-f][1,2,4]triazin-7-yl)-N-(4-cyanobicyclo[2.1.1]hexan-1-yl)-5-fluoro-4-methylbenzenesulfonamide trifluoroacetate salt]"
< 100,< 100,< 100,,"Cc1cc(Cl)c(S(=O)(=O)N[C@H]2CC[C@](C)(O)CC2)cc1-c1cnc2c(N)nc(C(F)(F)F)nn12 [Example 410, 5-(4-Amino-2-(trifluoromethyl)imidazo[1,2-f][1,2,4]triazin-7-yl)-2-chloro-N-((1r,4r)-4-hydroxy-4-methylcyclohexyl)-4-methylbenzenesulfonamide trifluoroacetate salt]"
< 100,< 100,< 100,,"Cc1ccc(S(=O)(=O)NC23CC(C#N)(C2)C3)cc1-c1cnc2c(N)nc(C(F)(F)F)nn12 [Example 330, 3-(4-Amino-2-(trifluoromethyl)imidazo[1,2-f][1,2,4]triazin-7-yl)-N-(3-cyanobicyclo[1.1.1]pentan-1-yl)-4-methylbenzenesulfonamide trifluoroacetate salt]"
,< 100,< 100,< 100,"Cc1ccc(S(=O)(=O)N2CC3(CC(O)C3)C2)cc1-c1cnc2c(N)nc(C(F)(F)F)nn12 [Example 343, 2-((3-(4-amino-2-(trifluoromethyl)imidazo[2,1-f][1,2,4]triazin-7-yl)-4-methylphenyl)sulfonyl)-2-azaspiro[3.3]heptan-6-ol TFA]"
> 1000,< 100,500 to 2000,,"CC(=O)N1CC(NS(=O)(=O)c2ccc(C)c(-c3cnc4c(N)ncnn34)c2)C1 [Example 103, N-(1-Acetylazetidin-3-yl)-3-(4-aminoimidazo[1,2-f][1,2,4]triazin-7-yl)-4-methylbenzenesulfonamide trifluoroacetate salt]"
> 1000,< 100,500 to 2000,,"Cc1ccc(S(=O)(=O)NCC2(C#N)CC2)cc1-c1cnc2c(N)ncnn12 [Example 101, 3-(4-Aminoimidazo[1,2-f][1,2,4]triazin-7-yl)-N-((1-cyanocyclopropyl)methyl)-4-methylbenzenesulfonamide trifluoroacetate salt]"
,< 100,100 to 500,100 to 500,"Cc1ccc(S(=O)(=O)N2CCNC[C@@H]2CO)cc1-c1cnc2c(N)ncnn12 [Example 166, (R)-(1-((3-(4-aminoimidazo[2,1-f][1,2,4]triazin-7-yl)-4-methylphenyl)sulfonyl)piperazin-2-yl)methanol]"
,< 100,500 to 2000,> 1000,"Cc1ccc(S(=O)(=O)N[C@H]2CC[C@H](N)CC2)cc1-c1cnc2c(N)ncnn12 [Example 73, bis-hydrochloride]"
100 to 500,< 100,100 to 500,,"N#CC12CCC(NS(=O)(=O)c3cc(-c4cnc5c(N)ncnn45)ccc3F)(C1)C2 [Example 365, 5-(4-Aminoimidazo[1,2-f][1,2,4]triazin-7-yl)-N-(4-cyanobicyclo[2.1.1]hexan-1-yl)-2-fluorobenzenesulfonamide trifluoroacetate salt]"

Structure (SMILES),IC50 [1] [nM],IC50 [2] [nM],IC50 [3] [nM],IC50 ([1]; Homo sapiens) [nM]
"Cc1ccc(S(=O)(=O)NC23CCN(CC2)CC3)cc1-c1cnc2c(N)ncnn12 [Example 182, 3-(4-aminoimidazo[1,2-f][1,2,4]triazin-7-yl)-4-methyl-N-(quinuclidin-4-yl)benzenesulfonamide trifluoroacetate salt]",500 to 1000,< 100,500 to 2000,
"COC(=O)C12CC(NS(=O)(=O)c3ccc(C)c(-c4cnc5c(N)ncnn45)c3)(C1)C2 [Example 88, Methyl 3-(3-(4-aminoimidazo[1,2-f][1,2,4]triazin-7-yl)-4-methylphenylsulfonamido)bicyclo[1.1.1]pentane-1-carboxylate trifluoroacetate salt]",< 100,< 100,100 to 500,
